Source: patent US20180303809A1, “TREATMENT OF BURN PAIN BY TRPV1 MODULATORS” (Purdue Pharma L.P., priority 2013, published 2018)
Several values for one entry are separate records, joined by “and”; a condition that tells them apart may be missing. Identical values can stand only once.

Columns and labels:
male Sprague-Dawley rats [1] = experiment: Paw pressure assay, mechanical hyperalgesia (PWT) in thermal burn pain model; type: in vivo, rat; settings: rat burn injury 55° C. 24 s
Description: (§1) Test Animals: Each experiment used male Sprague-Dawley rats weighing between 190-260 g at the time of thermal burn injury. The rats were housed two per cage, and were allowed to acclimate to their environment for at least six days before testing began. The rats had free access to food and water at all times, except during testing and prior to oral (PO) administration of a test compound, when food was removed about 16 hours before dosing. The rats were divided into treatment groups, and one of the following compounds was administered to each group at the dose and by the route of administration indicated in Tables 5.2A to 5.2C, 5.3A and 5.3B, and 5.4A and 5.4B: ketorolac (Sigma-Aldrich, St. Louis, Mo.), AMG 517 (selective TRPV1 antagonist described in Em. Doherty et al., “Novel vanilloid receptor-1 antagonists:2. Structure-activity relationships of 4-oxopyrimidines leading to the selection of a clinical candidate,” J Med Chem 50:3515-3527 (2007).) (Purdue Pharma L. P., Cranbury, N.J.), indomethacin (Alexis Biochemicals, Farmingdale, N.Y.), gabapentin (Bosche Scientific, New Brunswick, N.J.), or (S)-3-chloro-5-(1,2-dihydroxyethyl)-N-(5-(trifluoromethyl)pyridin-2-yl)-5′,6′-dihydro-[2,4′-bipyridine]-1′(2′H)-carboxamide (Compound 1). The control groups were administered the vehicle for the compound of formula (I). The volume of administration for PO treatment was 5 ml/kg, and was the same for all treatment groups. Volume of administration for intraperitoneal (i.p.) drug administration was 2 ml/kg.
(§2) To assess the actions of a compound of formula (I) for the treatment or prevention of burn pain, a model of thermal burn pain was used. A thermal burn injury was induced under isofluorane/O2 inhalation anesthesia. To assess mechanical hyperalgesia and weight bearing, a thermal injury was produced by immersing the left hind paw into water maintained at 55° C. for 24 seconds. The left hind paw of non-injured control animals was immersed in 22° C. water for 24 seconds. To assess thermal hyperalgesia, a thermal injury was produced by immersing the left hindpaw into water maintained at 50° C. for 48 seconds; the left hind-paw of non-injured control animals was immersed in 22° C. water for 48 seconds. The animals were assessed for response to noxious mechanical stimuli by determining PWT for mechanical hyperalgesia, weight bearing difference between the injured or non-injured side, or response to noxious thermal stimuli by determining PWL for thermal hyperalgesia, all as described below, prior to drug administration (baseline), then again at 1, 3 and 5 hours after induction of burn injury.
The paw pressure assay was used to assess mechanical hyperalgesia. For this assay, hind paw withdrawal thresholds (PWT) to a noxious mechanical stimulus were determined using an analgesimeter (Model 7200, commercially available from Ugo Basile of Italy) as described in C. Stein, “Unilateral Inflammation of the Hindpaw in Rats as a Model of Prolonged Noxious Stimulation: Alterations in Behavior and Nociceptive Thresholds,” Pharmacol. Biochem. and Behavior 31:451-455 (1988). The rat's paw was placed on a small platform, and weight was applied in a graded manner up to a maximum of 250 grams. The endpoint was taken as the weight at which the paw was completely withdrawn. PWT was determined once for each rat at each time point, wherein the affected (ipsilateral; same side as the injury) rear paw was tested. […] All drug treatment groups were compared to the vehicle control group (i.e. injured, administered only the vehicle).

male Sprague-Dawley rats [2] = experiment: Hind limb weight bearing (incapacitance meter, % WL) in thermal burn pain model; type: in vivo, rat; settings: rat burn injury 55° C. 24 s, 100 mg/kg IP in NaCl
Description: as §1, §2
A commercially available incapacitance meter was used to determine the weight distribution on the two hind paws of the animal (Linton Incapacitance Tester (Linton Instrumentation, Norfolk, UK)). The weight bearing difference (WBD) between the injured and non-injured hindpaw was measured. The animal was placed in the testing chamber that allows the animal to stand normally, distributing its body weight on the hind limbs for the test. Each hind paw was positioned on a separate pressure sensitive pad, which independently measures the pressure applied by each limb. The device continuously collects data after either a force threshold has been exceeded, or the investigator depresses the start pad. Rats were allowed to acclimate when placed on the apparatus, and when they were stationary, the force exerted was then continuously monitored for 3 s. The endpoint was the amount of pressure applied to each limb over time. Three readings were taken for each rat at each time point, and the average used for data analysis. WBD was expressed as “% WL”, i.e. the percentage of weight borne on the burn-injured left hind paw, using the following formula: […]
where WLP is the weight on the left hind paw and WRP is the weight on the right (untreated) hind paw. The 50% value of % WL corresponds to an equal weight distribution across both hind paws. […]

[3] = 3 mg/kg IP, 1 h after administration
[4] = 3 mg/kg IP, 3 h after administration
[5] = 3 mg/kg IP, 5 h after administration
[6] = 10 mg/kg IP, 1 h after administration
[7] = 10 mg/kg IP, 3 h after administration
[8] = 10 mg/kg IP, 5 h after administration
[9] = 30 mg/kg IP, 1 h after administration
[10] = 30 mg/kg IP, 3 h after administration
[11] = 30 mg/kg IP, 5 h after administration
[12] = 100 mg/kg IP in 0.9% NaCl, 1 h after administration, 100 mg/kg
[13] = 100 mg/kg IP in 0.9% NaCl, 5 h after administration, 100 mg/kg

NCC1(CC(=O)O)CCCCC1 [Gabapentin, gabapentin]
% Decrease from Baseline (mean ± S.E.M.) of Paw Withdrawal Threshold (male Sprague-Dawley rats [1]; [3]): 61 ± 2.1%
Paw Withdrawal Threshold (g) (mean ± S.E.M.) (male Sprague-Dawley rats [1]; [3]): 90 ± 4.1 g
% Decrease from Baseline (mean ± S.E.M.) of Paw Withdrawal Threshold (male Sprague-Dawley rats [1]; [4]): 55 ± 3.7%
Paw Withdrawal Threshold (g) (mean ± S.E.M.) (male Sprague-Dawley rats [1]; [4]): 102 ± 7.4 g
% Decrease from Baseline (mean ± S.E.M.) of Paw Withdrawal Threshold (male Sprague-Dawley rats [1]; [5]): 65 ± 3.0%
Paw Withdrawal Threshold (g) (mean ± S.E.M.) (male Sprague-Dawley rats [1]; [5]): 81 ± 6.5 g
Paw Withdrawal Threshold (g) (mean ± S.E.M.) (male Sprague-Dawley rats [1]; 3 mg/kg IP, baseline (prior to drug administration)): 232 ± 10.0 g
% Decrease from Baseline (mean ± S.E.M.) of Paw Withdrawal Threshold (male Sprague-Dawley rats [1]; [6]): 47 ± 3.9%
Paw Withdrawal Threshold (g) (mean ± S.E.M.) (male Sprague-Dawley rats [1]; [6]): 122 ± 9.1 g
% Decrease from Baseline (mean ± S.E.M.) of Paw Withdrawal Threshold (male Sprague-Dawley rats [1]; [7]): 43 ± 3.7%
Paw Withdrawal Threshold (g) (mean ± S.E.M.) (male Sprague-Dawley rats [1]; [7]): 130 ± 8.2 g
% Decrease from Baseline (mean ± S.E.M.) of Paw Withdrawal Threshold (male Sprague-Dawley rats [1]; [8]): 57 ± 3.2%
Paw Withdrawal Threshold (g) (mean ± S.E.M.) (male Sprague-Dawley rats [1]; [8]): 100 ± 8.7 g
Paw Withdrawal Threshold (g) (mean ± S.E.M.) (male Sprague-Dawley rats [1]; 10 mg/kg IP, baseline (prior to drug administration)): 231 ± 9.7 g
% Decrease from Baseline (mean ± S.E.M.) of Paw Withdrawal Threshold (male Sprague-Dawley rats [1]; [9]): 40 ± 2.0 %
Paw Withdrawal Threshold (g) (mean ± S.E.M.) (male Sprague-Dawley rats [1]; [9]): 144 ± 7.2 g
% Decrease from Baseline (mean ± S.E.M.) of Paw Withdrawal Threshold (male Sprague-Dawley rats [1]; [10]): 27 ± 5.1 %
Paw Withdrawal Threshold (g) (mean ± S.E.M.) (male Sprague-Dawley rats [1]; [10]): 174 ± 14.8 g
% Decrease from Baseline (mean ± S.E.M.) of Paw Withdrawal Threshold (male Sprague-Dawley rats [1]; [11]): 56 ± 4.0^ %
Paw Withdrawal Threshold (g) (mean ± S.E.M.) (male Sprague-Dawley rats [1]; [11]): 105 ± 11.2 g
Paw Withdrawal Threshold (g) (mean ± S.E.M.) (male Sprague-Dawley rats [1]; 30 mg/kg IP, baseline (prior to drug administration)): 237 ± 7.9 g
% Decrease from Baseline (mean ± S.E.M.) of Paw Withdrawal Threshold (male Sprague-Dawley rats [1]; [12]): 37 ± 5.3 % and 23 ± 6.6 % and 41 ± 3.6 %
Paw Withdrawal Threshold (g) (mean ± S.E.M.) (male Sprague-Dawley rats [1]; [12]): 152 ± 14.1 g and 180 ± 13.7 g and 145 ± 9.8 g
% Decrease from Baseline (mean ± S.E.M.) of Paw Withdrawal Threshold (male Sprague-Dawley rats [1]; [13]): 53 ± 6.0^ % and 55 ± 4.6^ % and 56 ± 2.2^ %
Paw Withdrawal Threshold (g) (mean ± S.E.M.) (male Sprague-Dawley rats [1]; [13]): 112 ± 12.4^ g and 105 ± 9.5 g and 108 ± 5.8^ g
Paw Withdrawal Threshold (g) (mean ± S.E.M.) (male Sprague-Dawley rats [1]; 100 mg/kg IP in 0.9% NaCl, baseline (prior to drug administration), 100 mg/kg): 239 ± 7.7 g and 237 ± 7.8 g and 246 ± 4.5^ g
% WL (mean ± S.E.M.), percentage of weight borne on the burn-injured left hind paw (male Sprague-Dawley rats [2]; 1 h after administration): 33.6 ± 3.09 %
% WL (mean ± S.E.M.), percentage of weight borne on the burn-injured left hind paw (male Sprague-Dawley rats [2]; 3 h after administration): 44.8 ± 2.58%
% WL (mean ± S.E.M.), percentage of weight borne on the burn-injured left hind paw (male Sprague-Dawley rats [2]; 5 h after administration): 44.0 ± 2.24%
% WL (mean ± S.E.M.), percentage of weight borne on the burn-injured left hind paw (male Sprague-Dawley rats [2]; baseline (prior to drug administration)): 51.1 ± 0.57%
